# ChEMBL document CHEMBL2010744, “Pyridyl aminothiazoles as potent inhibitors of Chk1 with slow dissociation rates” (Bioorg Med Chem Lett, 2012)
# Active and inactive are the calls of the source. The rule behind the calls is not given here.
# Target: T1, Serine/threonine-protein kinase Chk1 (Homo sapiens, UniProt O14757)
# T1 sequence (O14757 whole entry): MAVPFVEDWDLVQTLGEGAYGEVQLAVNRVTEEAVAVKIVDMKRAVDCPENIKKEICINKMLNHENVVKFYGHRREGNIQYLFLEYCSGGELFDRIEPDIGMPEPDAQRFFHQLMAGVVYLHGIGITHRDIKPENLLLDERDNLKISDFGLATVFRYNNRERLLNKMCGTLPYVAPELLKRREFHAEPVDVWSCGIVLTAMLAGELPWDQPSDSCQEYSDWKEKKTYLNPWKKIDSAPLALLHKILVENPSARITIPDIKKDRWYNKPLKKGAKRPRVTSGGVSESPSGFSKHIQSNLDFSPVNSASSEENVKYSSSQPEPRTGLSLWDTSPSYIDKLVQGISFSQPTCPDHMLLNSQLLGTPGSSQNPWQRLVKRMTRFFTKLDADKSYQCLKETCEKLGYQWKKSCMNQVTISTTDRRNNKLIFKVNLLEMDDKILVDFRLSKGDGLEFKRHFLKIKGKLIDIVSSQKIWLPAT
# Experiment: Competitive inhibition of Chk1 in presence of higher ATP levels
row,IC50 [nM],SMILES
1,320,NC/C=C/c1cncc(-c2cnc(Nc3cc(N4CCOCC4)ccn3)s2)c1
2,60,Cc1ncc(-c2cnc(Nc3cc(N4CCOCC4)ccn3)s2)cn1
3,0.05,NCCNC(=O)c1cncc(-c2cnc(Nc3cc(N4CCNCC4)ccn3)s2)c1
4,0.27,NCCC(=O)c1cncc(-c2cnc(Nc3cc(N4CCOCC4)ccn3)s2)c1
5,440,N#Cc1cncc(-c2cnc(Nc3cc(N4CCOCC4)ccn3)s2)c1
6,35,N#Cc1cncc(-c2cnc(Nc3cc(N4CCNCC4)ccn3)s2)c1
7,60,COc1ncc(-c2cncc(-c3cnc(Nc4cc(N5CCOCC5)ccn4)s3)c2)cn1
8,1,CNCCNC(=O)c1cncc(-c2cnc(Nc3cc(N4CCOCC4)ccn3)s2)c1
9,1.4,NCCCNC(=O)c1cncc(-c2cnc(Nc3cc(N4CCOCC4)ccn3)s2)c1
10,6,OCC#Cc1cncc(-c2cnc(Nc3cc(N4CCOCC4)ccn3)s2)c1
11,19,c1cncc(-c2cncc(-c3cnc(Nc4cc(N5CCOCC5)ccn4)s3)c2)c1
12,35,c1cc(N2CCOCC2)cc(Nc2ncc(-c3cncc(-c4cn[nH]c4)c3)s2)n1
13,0.05,NCCNC(=O)c1cncc(-c2cnc(Nc3cc(N4CCC(F)(F)CC4)ccn3)s2)c1
14,0.03,CC(=O)N1CCN(c2ccnc(Nc3ncc(-c4cncc(C(=O)NCCN)c4)s3)c2)CC1
15,350,COc1ncccc1-c1cncc(-c2cnc(Nc3cc(N4CCOCC4)ccn3)s2)c1
16,37,c1ncc(-c2cncc(-c3cnc(Nc4cc(N5CCOCC5)ccn4)s3)c2)cn1
17,12,NCCCc1cncc(-c2cnc(Nc3cc(N4CCOCC4)ccn3)s2)c1
18,0.4,NCCNC(=O)c1cncc(-c2cnc(Nc3cc(CN4CCOCC4)ccn3)s2)c1

# Second part, the compound before the results:
row,SMILES,IC50 [nM]
1,OCCNc1ccnc(Nc2ncc(-c3cncnc3)s2)c1,90
2,Cc1ncc(-c2cnc(Nc3cccc(NCCCN)n3)s2)cn1,29
3,Cc1ncc(-c2cnc(Nc3cccc(N4CCNCC4)n3)s2)cn1,120
4,Cc1ncc(-c2cnc(Nc3cc(N4CCNCC4)ccn3)s2)cn1,29
5,Cc1ccc(-c2cnc(Nc3cc(N4CCNCC4)ccn3)s2)cn1,37
6,CS(=O)(=O)N1CCN(c2ccnc(Nc3ncc(-c4cncnc4)s3)c2)CC1,47
7,OCC1CN(c2ccnc(Nc3ncc(-c4cccnc4)s3)c2)CCO1 (stereo not drawn),49
8,CC(=O)N1CCN(c2ccnc(Nc3ncc(-c4ccc(C)nc4)s3)c2)CC1,206
9,CS(=O)(=O)N1CCN(c2ccnc(Nc3ncc(-c4cncc(C(=O)NCCN)c4)s3)c2)CC1,0.03
10,Cc1ccc(-c2cnc(Nc3cc(N4CCN(S(C)(=O)=O)CC4)ccn3)s2)cn1,113
11,Brc1cccc(-c2cnc(Nc3cc(N4CCNCC4)ccn3)s2)c1,> 1050
12,c1cc(N2CCNCC2)cc(Nc2ncc(-c3cncc(-c4cn[nH]c4)c3)s2)n1,8
13,c1ccc(-c2cnc(Nc3cc(N4CCNCC4)ccn3)s2)cc1,520

# Target: T2, Serine/threonine-protein kinase Chk1 (Homo sapiens) (UniProt O14757)
# T2 sequence (whole entry): T1 sequence (O14757 whole entry)
# Experiment: Inhibition of immobilized Chk1 at 11 nM incubated for 30 mins followed by 24 hrs washout by HTRF assay
row,inhibition,SMILES
1,Active,NCCNC(=O)c1cncc(-c2cnc(Nc3cc(N4CCC(F)(F)CC4)ccn3)s2)c1

# Target: T2, Serine/threonine-protein kinase Chk1 (Homo sapiens)
# Experiment: Competitive inhibition of immobilized Chk1 at 11 nM incubated for 30 mins followed by 24 hrs washout by HTRF assay in presence of 100 uM ATP
row,inhibition,SMILES
1,Active,NCCNC(=O)c1cncc(-c2cnc(Nc3cc(N4CCC(F)(F)CC4)ccn3)s2)c1
